We go through 28 molecules from patent US20260138980A1, “SPIRO COMPOUNDS AND USES THEREOF IN THE FIELD OF MEDICINE” (Kind Pharmaceutical, priority 2023, published 2026).

The subject of the test is EPO. Nature of the test: Determination of EPO inhibition rate by compounds using Hep3B cells (EPO ELISA of culture supernatant). Particulars: Homo sapiens, EPO induced with 30 μM (6′-hydroxy-3′-(4-methoxyphenyl)-8′-oxo-8′H-spiro[cyclopentane-1,5′-indolizine]-7′-carbonyl)glycine or its analogues, test compound 48 hours. Type of test: cell-based. On the procedure: Hep3B cells (from the Cell Bank of the Chinese Academy of Sciences, TCHu106) were seeded in a plate at a density of 5×10^4/mL and incubated overnight at 37° C. in a 5% CO2 incubator (Thermo Scientific BB150). The next day, the culture medium was replaced with medium containing 0.5% FBS (VivaCell C04001-500) to starve the cells for 6 hours. Subsequently, a DMSO solution of (6′-hydroxy-3′-(4-methoxyphenyl)-8′-oxo-8′H-spiro[cyclopentane-1,5′-indolizine]-7′-carbonyl)glycine or its analogues was added to achieve a final concentration of 30 μM. The plate was returned to the 37° C., 5% CO2 incubator for an additional 24 hours. Then, a DMSO solution of the test compound was added to achieve final concentrations of 30000 nM, 7500 nM, 1875 nM, 469 nM, 117 nM, 29 nM, 7.3 nM, 1.8 nM, 0.5 nM, and 0 nM (ten concentrations in total). Treatment continued for 48 hours. Cell culture supernatants were collected for EPO ELISA detection. The assay was performed according to the instructions of the ELISA kit (Sangon Biotech (Shanghai) Co., Ltd., D711311-0096). Absorbance was read at a wavelength of 450 nm using a microplate reader (Thermo Scientific Multiskan Go, 511191200).
The compound inhibition rate was calculated using the formula: Inhibition Rate=1-100%*(EPO value of the treated well−EPO value of the blank well)/(EPO value of the Control well−EPO value of the blank well). The IC50 value was calculated by linear fitting of the inhibition rates. Herein, the Control well refers to the cell-containing well treated for 72 hours with a DMSO solution containing 0 nM of the test compound but containing 30 μM of (6′-hydroxy-3′-(4-methoxyphenyl)-8′-oxo-8′H-spiro[cyclopentane-1,5′-indolizine]-7′-carbonyl)glycine or its analogues. The EPO level in this well was set as 100%. The blank well refers to a cell-containing well without the addition of any compound.
For orientation: In an ELISA, binding on a coated surface is turned into a signal by an enzyme label.

As a reminder, the IC50 is the midpoint of a concentration-inhibition curve. Higher therefore signals weaker potency. The molecule `Fc1c(Br)ccc2c1C(I)=CCC21CN2C=C(C(F)(F)F)C=C(OC(F)F)C2=N1` (stereo not shown) [Example 13, 6′-Bromo-8-difluoromethoxy-5′-fluoro-4′-iodo-6-trifluoromethyl-2′H,3H-spiro[imidazo[1,2-a]pyridine-2,1′-naphthalene]] gave an IC50 of 116 nM.

On to `FC(F)OC1=CC(C(F)(F)F)=CN2CC3(CC=C(C(F)(F)F)c4c3ccnc4Cl)N=C12` (stereo not shown) [Example 8, 1′-Chloro-8-difluoromethoxy-6,8′-bis(trifluoromethyl)-3H,6′H-spiro[imidazo[1,2-a]pyridine-2,5′-isoquinoline]], for which the IC50 worked out at 148 nM.

Molecule `Fc1cccc2c1C=CC[C@]21CN2C=C(C(F)(F)F)C=C(OC(F)F)C2=N1` (single isomer, unassigned) [Example 16-B] showed an IC50 of 20.4 nM.

`Fc1c(Br)ccc2c1C=CCC21CN2C=C(C(F)(F)F)C=C(OC(F)F)C2=N1` (stereo not shown) [Example 12, 6′-Bromo-8-(difluoromethoxy)-5′-fluoro-6-(trifluoromethyl)-2′H,3H-spiro[imidazo[1,2-a]pyridine-2,1′-naphthalene]] had an IC50 of 1.08 nM.

In turn, `FC(F)OC1=CC(C(F)(F)F)=CN2C[C@@]3(CC=Cc4c3ccnc4Cl)N=C12` (single isomer, unassigned) [Example 2-B] displayed an IC50 of 18.7 nM. This IC50 lies about 17-fold higher than the previous one.

Molecule `Fc1cccc2c1C(I)=CCC21CN2C=C(C(F)(F)F)C=C(OC(F)F)C2=N1` (stereo not shown) [Example 19, 8-Difluoromethoxy-5′-fluoro-4′-iodo-6-trifluoromethyl-2′H,3H-spiro[imidazo[1,2-a]pyridine-2,1′-naphthalene]] registered an IC50 of 302 nM.

Turning to `FC(F)OC1=CC(C(F)(F)F)=CN2C[C@]3(CC=Cc4c3ccnc4Cl)N=C12` (single isomer, unassigned) [Example 2-A], inhibition was half-maximal at 365 nM (IC50).

In turn, `Cc1ccc2c(c1F)C=CCC21CN2C=C(C(F)(F)F)C=C(OC(F)F)C2=N1` (stereo not shown) [Example 18, 8-Difluoromethoxy-5′-fluoro-6′-methyl-6-trifluoromethyl-2′H,3H-spiro[imidazo[1,2-a]pyridine-2,1′-naphthalene]] gave an IC50 of 3.48 nM. This IC50 is about 100-fold lower than that of the molecule before.

Take `FC(F)OC1=CC(C(F)(F)F)=CN2CC3(CC=C(Cl)c4c3ccnc4Cl)N=C12` (stereo not shown) [Example 7, 1′,8′-Dichloro-8-difluoromethoxy-6-trifluoromethyl-3H,6′H-spiro[imidazo[1,2-a]pyridine-2,5′-isoquinoline]]: half-maximal inhibition (IC50) was put at 24.4 nM.

`FC1=CCC2(CN3C=C(C(F)(F)F)C=C(OC(F)F)C3=N2)c2ccc(Br)c(F)c21` (stereo not shown) [Example 11, 6′-Bromo-8-difluoromethoxy-4′,5′-difluoro-6-trifluoromethyl-2′H,3H-spiro[imidazo[1,2-a]pyridine-2,1′-naphthalene]] returned an IC50 of 12.2 nM.

`FC1=Cc2c(ccnc2Cl)C2(C1)CN1C=C(C(F)(F)F)C=C(OC(F)F)C1=N2` (racemic) [Example 10, 1′-Chloro-8-difluoromethoxy-7′-fluoro-6-trifluoromethyl-3H,6′H-spiro[imidazo[1,2-a]pyridine-2,5′-isoquinoline]]: the midpoint of inhibition, the IC50, lay at 26.8 nM.

`FC1=CC[C@@]2(CN3C=C(C(F)(F)F)C=C(OC(F)F)C3=N2)c2cccc(F)c21` (single isomer, unassigned) [Example 15-A] registered an IC50 of 2.12 nM. This IC50 lies about 13-fold lower than the previous one.

In turn, `FC(F)OC1=CC(C(F)(F)F)=CN2CC3(CC=Cc4c3ccnc4Cl)N=C12` (racemic) [Example 2, 1′-Chloro-8-difluoromethoxy-6-trifluoromethyl-3H,6′H-spiro[imidazo[1,2-a]pyridine-2,5′-isoquinoline]] displayed an IC50 of 35.8 nM.

Turning to `FC1=CCC2(CN3C=C(C(F)(F)F)C=C(OC(F)F)C3=N2)c2ccnc(Cl)c21` (racemic) [Example 1, 1′-Chloro-8-difluoromethoxy-8′-fluoro-6-trifluoromethyl-3H,6′H-spiro[imidazo[1,2-a]pyridine-2,5′-isoquinoline]], the IC50 was 29 nM. This IC50 and that of the molecule before are within 1.5-fold of each other.

Consider `Fc1cccc2c1C=CCC21CN2C=C(C(F)(F)F)C=C(OC(F)F)C2=N1` (racemic) [Example 16, 8-(Difluoromethoxy)-5′-fluoro-6-trifluoromethyl-2′H,3H-spiro[imidazo[1,2-a]pyridine-2,1′-naphthalene]], for which half-maximal inhibition (IC50) required 7.01 nM.

Molecule `CC1=CCC2(CN3C=C(C(F)(F)F)C=C(OC(F)F)C3=N2)c2ccnc(Cl)c21` (stereo not shown) [Example 6, 1′-Chloro-8-difluoromethoxy-8′-methyl-6-trifluoromethyl-3H,6′H-spiro[imidazo[1,2-a]pyridine-2,5′-isoquinoline]] displayed an IC50 of 181 nM.

Turning to `FC1=CC[C@]2(CN3C=C(C(F)(F)F)C=C(OC(F)F)C3=N2)c2ccnc(Cl)c21` (single isomer, unassigned) [Example 1-B], the IC50 was 563 nM. Compared with the last molecule, the IC50 is about 3.1-fold higher.

As to `FC1=CCC2(CN3C=C(C(F)(F)F)C=C(OC(F)F)C3=N2)c2cccc(F)c21` (racemic) [Example 15, 8-(Difluoromethoxy)-4′,5′-difluoro-6-(trifluoromethyl)-2′H,3H-spiro[imidazo[1,2-a]pyridine-2,1′-naphthalene]], it took 3.04 nM to reach half-maximal inhibition (IC50). This IC50 is about 190-fold lower than that of the molecule before.

Molecule `O=[N+]([O-])c1c(Nc2cc(F)cc(Cl)c2)ccc2nonc12` [positive control compound, reference compound] had an IC50 of 497 nM.

In turn, `FC(F)OC1=CC(C(F)(F)F)=CN2CC3(CC(Cl)=Cc4c3ccnc4Cl)N=C12` (stereo not shown) [Example 9, 1′,7′-Dichloro-8-difluoromethoxy-6-trifluoromethyl-3H,6′H-spiro[imidazo[1,2-a]pyridine-2,5′-isoquinoline]] displayed an IC50 of 47.9 nM.

The molecule `FC1=Cc2c(ccnc2Cl)[C@@]2(C1)CN1C=C(C(F)(F)F)C=C(OC(F)F)C1=N2` (single isomer, unassigned) [Example 10-B] had an IC50 of 26.9 nM.

In turn, `Fc1cccc2c1C=CC[C@@]21CN2C=C(C(F)(F)F)C=C(OC(F)F)C2=N1` (single isomer, unassigned) [Example 16-A] had an IC50 of 6.45 nM.

Molecule `FC1=CC[C@@]2(CN3C=C(C(F)(F)F)C=C(OC(F)F)C3=N2)c2ccnc(Cl)c21` (single isomer, unassigned) [Example 1-A] registered an IC50 of 17.9 nM. This IC50 lies about 2.8-fold higher than the previous one.

The molecule `FC1=CC[C@]2(CN3C=C(C(F)(F)F)C=C(OC(F)F)C3=N2)c2cccc(F)c21` (single isomer, unassigned) [Example 15-B] came in with an IC50 of 109 nM.

In the case of `FC1=Cc2c(ccnc2Cl)[C@]2(C1)CN1C=C(C(F)(F)F)C=C(OC(F)F)C1=N2` (single isomer, unassigned) [Example 10-A], the IC50 was found to be 2150 nM.

In the case of `Fc1c(Br)ccc2c1C(Cl)=CCC21CN2C=C(C(F)(F)F)C=C(OC(F)F)C2=N1` (stereo not shown) [Example 14, 6′-Bromo-4′-chloro-8-difluoromethoxy-5′-fluoro-6-trifluoromethyl-2′H,3H-spiro[imidazo[1,2-a]pyridine-2,1′-naphthalene]], 4.12 nM corresponded to half-maximal inhibition (IC50). Against the preceding molecule, the IC50 is about 520-fold lower.

Take `FC(F)OC1=CC(C(F)(F)F)=CN2CC3(CC=Cc4cnccc43)N=C12` (stereo not shown) [Example 20, 8-Difluoromethoxy-6-trifluoromethyl-3H,6′H-spiro[imidazo[1,2-a]pyridine-2,5′-isoquinoline]]: the IC50 is 813 nM.

On to `Cc1nccc2c1C=CCC21CN2C=C(C(F)(F)F)C=C(OC(F)F)C2=N1` (stereo not shown) [Example 17, 8-Difluoromethoxy-1′-methyl-6-trifluoromethyl-3H,6′H-spiro[imidazo[1,2-a]pyridine-2,5′-isoquinoline]], for which the IC50 came out at 705 nM. The IC50 values of the last two molecules are within 1.5-fold of each other.
